Results reported in a compilation of properties of binary mixtures (doi:10.1016/j.molliq.2022.119052).

Test: xn = mol fraction of the nth substance listed
Conditions: 100 kPa, x1 = 0.333

Compound	viscosity (303.15 K)	viscosity (323.15 K)	viscosity (298.15 K)	viscosity (313.15 K)	viscosity (333.15 K)
Cn1cc[nH+]c1.[Cl-] + OCC(O)CO	103.1 mPa·s	49.1 mPa·s	–	–	–
CC[n+]1ccn(C)c1.[Cl-] + OCC(O)CO	–	58.5 mPa·s	156.4 mPa·s	85.1 mPa·s	41.2 mPa·s
CCn1cc[nH+]c1.[Cl-] + OCC(O)CO	–	32 mPa·s	79.9 mPa·s	45.3 mPa·s	23 mPa·s
